Test results reported in the supplement of paper PMC11451515.

How the values were obtained:
Conditions in all cases: 48 h
P12-Ichikawa [1] = assay: AUC of viability dose-response curve (% viability x log10 dose units); higher = less sensitive
Procedure, shortened: (§1)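 Leukemia cells adapted to each medium were seeded at 500 or 1000 cells/well in 1536-well plates and dosed with library compounds in DMSO at 11 threefold doses from 47 μM to 0.79 nM for 48 h at 37°C. CellTiter-Glo One luminescence was normalised per plate to DMSO and cell-free wells, then fitted with a four-parameter log-logistic model over log10 doses. Area under the curve was taken from this fit by the trapezoidal rule, with curves above full viability scaled and curves failing quality control removed.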

SEM cells [2] = assay: as above
Procedure, shortened: as §1

NOMO1 [3] = assay: as above
Procedure, shortened: as §1

P12-Ichikawa [4] = assay: cell viability relative to DMSO control; higher = less cytotoxic
Procedure, shortened: (§2)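 Leukemia cells (NOMO1 or SEM, 500 cells/well; P12-Ichikawa, 1000 cells/well) were seeded in 5 μl in 1536-well plates after at least four passages of adaptation to each medium. They received library compounds in DMSO by pin dosing, 11 threefold points from 47 μM to 0.79 nM. Luminescence with CellTiter-Glo One was read after 48 h at 37°C. Viability is stated per plate relative to DMSO wells, with cell-free wells as background.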

SEM cells [5] = assay: as above
Procedure, shortened: as §2

NOMO1 [6] = assay: as above
Procedure, shortened: as §2

COc1ccc2cc1Oc1ccc(cc1)C[C@H]1c3cc(c(OC)cc3CCN1C)Oc1c(OC)c(OC)cc3c1[C@H](C2)N(C)CC3
AUC of viability dose-response curve
Conditions	NOMO1 [3]	P12-Ichikawa [1]	SEM cells [2]
HPLM + 10% dialyzed FBS	430	442	423
RPMI 5 mM glucose + 10% FBS	451	447	432
RPMI 5 mM glucose + 10% dialyzed FBS	452	458	441

cell viability [%]
Conditions	NOMO1 [6]	P12-Ichikawa [4]	SEM cells [5]
HPLM + 10% dialyzed FBS, 0.000781 µM	–	113	123
HPLM + 10% dialyzed FBS, 0.00234 µM	–	122	120
HPLM + 10% dialyzed FBS, 0.00702 µM	–	118	135
HPLM + 10% dialyzed FBS, 0.0211 µM	–	118	107
HPLM + 10% dialyzed FBS, 0.0632 µM	–	110	111
HPLM + 10% dialyzed FBS, 0.19 µM	–	114	123
HPLM + 10% dialyzed FBS, 0.569 µM	–	113	108
HPLM + 10% dialyzed FBS, 1.71 µM	–	101	82.6
HPLM + 10% dialyzed FBS, 5.12 µM	–	96.8	130
HPLM + 10% dialyzed FBS, 15.4 µM	–	98.3	102
HPLM + 10% dialyzed FBS, 46.1 µM	–	63.2	86.8
RPMI 5 mM glucose + 10% FBS, 0.000781 µM	109	123	124
RPMI 5 mM glucose + 10% FBS, 0.00234 µM	110	118	122
RPMI 5 mM glucose + 10% FBS, 0.00702 µM	132	115	115
RPMI 5 mM glucose + 10% FBS, 0.0211 µM	111	117	144
RPMI 5 mM glucose + 10% FBS, 0.0632 µM	111	113	127
RPMI 5 mM glucose + 10% FBS, 0.19 µM	116	111	126
RPMI 5 mM glucose + 10% FBS, 0.569 µM	117	112	120
RPMI 5 mM glucose + 10% FBS, 1.71 µM	107	111	88.9
RPMI 5 mM glucose + 10% FBS, 5.12 µM	98.3	103	116
RPMI 5 mM glucose + 10% FBS, 15.4 µM	99.8	91.2	105
RPMI 5 mM glucose + 10% FBS, 46.1 µM	85.1	49.1	72.5
RPMI 5 mM glucose + 10% dialyzed FBS, 0.000781 µM	107	114	125
RPMI 5 mM glucose + 10% dialyzed FBS, 0.00234 µM	120	111	117
RPMI 5 mM glucose + 10% dialyzed FBS, 0.00702 µM	121	115	113
RPMI 5 mM glucose + 10% dialyzed FBS, 0.0211 µM	118	106	125
RPMI 5 mM glucose + 10% dialyzed FBS, 0.0632 µM	113	113	107
RPMI 5 mM glucose + 10% dialyzed FBS, 0.19 µM	119	103	135
RPMI 5 mM glucose + 10% dialyzed FBS, 0.569 µM	111	105	105
RPMI 5 mM glucose + 10% dialyzed FBS, 1.71 µM	108	103	95.6
RPMI 5 mM glucose + 10% dialyzed FBS, 5.12 µM	103	102	114
RPMI 5 mM glucose + 10% dialyzed FBS, 15.4 µM	98.7	95.6	89.5
RPMI 5 mM glucose + 10% dialyzed FBS, 46.1 µM	86.8	58.5	64

CC/1=C(\O)C(=O)\C=C2/C1=C/C=C3\[C@@]2(C)CC[C@@]4(C)[C@@H]5C[C@@](C)(CC[C@]5(C)CC[C@]34C)C(O)=O
AUC of viability dose-response curve
Conditions	NOMO1 [3]	P12-Ichikawa [1]	SEM cells [2]
HPLM + 10% dialyzed FBS	366	386	362
RPMI 5 mM glucose + 10% FBS	360	360	355
RPMI 5 mM glucose + 10% dialyzed FBS	363	346	341

cell viability [%]
Conditions	NOMO1 [6]	P12-Ichikawa [4]	SEM cells [5]
HPLM + 10% dialyzed FBS, 0.000781 µM	104	105	109
HPLM + 10% dialyzed FBS, 0.00234 µM	119	96.7	102
HPLM + 10% dialyzed FBS, 0.00702 µM	97.5	103	102
HPLM + 10% dialyzed FBS, 0.0211 µM	99.6	103	119
HPLM + 10% dialyzed FBS, 0.0632 µM	108	114	113
HPLM + 10% dialyzed FBS, 0.19 µM	115	109	109
HPLM + 10% dialyzed FBS, 0.569 µM	113	104	118
HPLM + 10% dialyzed FBS, 1.71 µM	90	98.5	97.6
HPLM + 10% dialyzed FBS, 5.12 µM	23.4	56.4	10.9
HPLM + 10% dialyzed FBS, 15.4 µM	8.21	5.75	8.14
HPLM + 10% dialyzed FBS, 46.1 µM	8.32	5.87	5.78
RPMI 5 mM glucose + 10% FBS, 0.000781 µM	92.5	97.4	126
RPMI 5 mM glucose + 10% FBS, 0.00234 µM	103	97.3	97.9
RPMI 5 mM glucose + 10% FBS, 0.00702 µM	102	104	102
RPMI 5 mM glucose + 10% FBS, 0.0211 µM	105	96.9	117
RPMI 5 mM glucose + 10% FBS, 0.0632 µM	95	102	118
RPMI 5 mM glucose + 10% FBS, 0.19 µM	90.6	97.2	111
RPMI 5 mM glucose + 10% FBS, 0.569 µM	85.6	106	110
RPMI 5 mM glucose + 10% FBS, 1.71 µM	89.7	75.9	85.7
RPMI 5 mM glucose + 10% FBS, 5.12 µM	26.2	22.5	8.55
RPMI 5 mM glucose + 10% FBS, 15.4 µM	11	5.4	7.7
RPMI 5 mM glucose + 10% FBS, 46.1 µM	6.03	4.66	6.91
RPMI 5 mM glucose + 10% dialyzed FBS, 0.000781 µM	108	96.1	97.7
RPMI 5 mM glucose + 10% dialyzed FBS, 0.00234 µM	104	94.9	91.4
RPMI 5 mM glucose + 10% dialyzed FBS, 0.00702 µM	112	98.8	103
RPMI 5 mM glucose + 10% dialyzed FBS, 0.0211 µM	99.8	101	79.8
RPMI 5 mM glucose + 10% dialyzed FBS, 0.0632 µM	109	95.6	112
RPMI 5 mM glucose + 10% dialyzed FBS, 0.19 µM	97.6	94.8	89
RPMI 5 mM glucose + 10% dialyzed FBS, 0.569 µM	110	97.9	108
RPMI 5 mM glucose + 10% dialyzed FBS, 1.71 µM	82.6	71.1	61.1
RPMI 5 mM glucose + 10% dialyzed FBS, 5.12 µM	20.6	16.6	8.59
RPMI 5 mM glucose + 10% dialyzed FBS, 15.4 µM	14.1	5.81	9.09
RPMI 5 mM glucose + 10% dialyzed FBS, 46.1 µM	5.2	4.82	6.92

C1CCN2C[C@H]3C[C@H](\C=C/4CCCN[C@@H]34)[C@H]2C1
AUC of viability dose-response curve
Conditions	NOMO1 [3]	P12-Ichikawa [1]	SEM cells [2]
HPLM + 10% dialyzed FBS	462	456	465
RPMI 5 mM glucose + 10% FBS	447	457	449
RPMI 5 mM glucose + 10% dialyzed FBS	452	457	457

cell viability [%]
Conditions	NOMO1 [6]	P12-Ichikawa [4]	SEM cells [5]
HPLM + 10% dialyzed FBS, 0.000781 µM	96.5	105	91.7
HPLM + 10% dialyzed FBS, 0.00234 µM	113	108	108
HPLM + 10% dialyzed FBS, 0.00702 µM	113	99.3	105
HPLM + 10% dialyzed FBS, 0.0211 µM	133	103	107
HPLM + 10% dialyzed FBS, 0.0632 µM	96.1	104	115
HPLM + 10% dialyzed FBS, 0.19 µM	122	110	115
HPLM + 10% dialyzed FBS, 0.569 µM	137	110	113
HPLM + 10% dialyzed FBS, 1.71 µM	107	115	108
HPLM + 10% dialyzed FBS, 5.12 µM	115	111	101
HPLM + 10% dialyzed FBS, 15.4 µM	99.5	108	123
HPLM + 10% dialyzed FBS, 46.1 µM	92.8	11.1	112
RPMI 5 mM glucose + 10% FBS, 0.000781 µM	105	110	95.2
RPMI 5 mM glucose + 10% FBS, 0.00234 µM	105	115	105
RPMI 5 mM glucose + 10% FBS, 0.00702 µM	108	121	89.2
RPMI 5 mM glucose + 10% FBS, 0.0211 µM	104	127	118
RPMI 5 mM glucose + 10% FBS, 0.0632 µM	98.7	117	103
RPMI 5 mM glucose + 10% FBS, 0.19 µM	108	123	110
RPMI 5 mM glucose + 10% FBS, 0.569 µM	104	122	102
RPMI 5 mM glucose + 10% FBS, 1.71 µM	105	116	96
RPMI 5 mM glucose + 10% FBS, 5.12 µM	108	115	95.7
RPMI 5 mM glucose + 10% FBS, 15.4 µM	63.7	134	118
RPMI 5 mM glucose + 10% FBS, 46.1 µM	55	20.8	120
RPMI 5 mM glucose + 10% dialyzed FBS, 0.000781 µM	107	113	99.6
RPMI 5 mM glucose + 10% dialyzed FBS, 0.00234 µM	108	104	102
RPMI 5 mM glucose + 10% dialyzed FBS, 0.00702 µM	114	101	109
RPMI 5 mM glucose + 10% dialyzed FBS, 0.0211 µM	121	112	127
RPMI 5 mM glucose + 10% dialyzed FBS, 0.0632 µM	108	112	103
RPMI 5 mM glucose + 10% dialyzed FBS, 0.19 µM	108	109	117
RPMI 5 mM glucose + 10% dialyzed FBS, 0.569 µM	120	108	103
RPMI 5 mM glucose + 10% dialyzed FBS, 1.71 µM	111	97.6	104
RPMI 5 mM glucose + 10% dialyzed FBS, 5.12 µM	120	112	95.8
RPMI 5 mM glucose + 10% dialyzed FBS, 15.4 µM	78.6	108	122
RPMI 5 mM glucose + 10% dialyzed FBS, 46.1 µM	64.2	19.2	122
